Assay results reported in patent publication US10568854B2, “Compositions and methods for treating kabuki syndrome and related disorders” (THE JOHNS HOPKINS UNIVERSITY, priority 2014, dated 2020).
“Also recorded” adds a separate entry of the source.

Key:
[1] = tested on: DCX positive cells in the GCL; assay: DCX (doublecortin) expression in the GCL, neurogenesis (AR-42 treated mice); assay type: in vivo, mouse
Description: Animals: Kmt2d^+/βGeo mice, also named Mll2Gt^(RRt024)Byg, were acquired from Bay Genomics (University of California). All experimental mice were on a mixed C57BL/6J and 129/SvEv background. Expected Mendelian ratios were observed when heterozygous animals were bred to wild-type. In heterozygous crosses, however, there was uniform embryonic lethality of homozygotes by ED12, the earliest developmental stage assayed. For treatment with AR-42 mice were orally gavaged daily with drug (Selleck Chemicals, Houston, Tex.) solubilized in vehicle (0.5% methylcellulose, 0.1% Tween-80, water) or with vehicle alone. Drug delivery information was kindly provided by Drs. Chen and Kulp from Ohio State University (Huang et al. (2011) Mol. Pharmacol. 79:197-20619). Drug was administered for 14 days and mice were sacrificed on day 15. Morris water maze testing was initiated at day 7 and a dose of 10 mg/kg/day was used for these studies. For quantification of DCX positive cells, doses of 0, 5, 10 and 25 mg/kg/day were used. Genotyping was performed using primers B-GeoF-([…]; SEQ ID NO: 1) and B-GeoR-([…]; SEQ ID NO: 2) that are specific for the targeted allele and TcrdF-([…]; SEQ ID NO: 3) and TcrdR-([…]; SEQ ID NO: 4) that control for sufficient DNA concentration. Real-time PCR using the same primers allows discrimination between the heterozygous and homozygous state for the targeted allele. Maxillary protrusion was evaluated by ten investigators blinded to genotype and they were asked to rate maxillary protrusion on radiographs as either large (2) or small (1). […] All experiments were performed using mouse protocols approved by the Animal Care and Use Committee of Johns Hopkins University School of Medicine. The mouse protocols used for this study are in accordance with the guidelines used by the NIH for mouse care and handling.
Immunofluorescence: Every 6th brain section was selected and then blocked with 5% Bovine Serum Albumin (BSA) at room temperature followed by incubation with primary antibodies overnight at 4° C. Secondary antibodies were then applied for 1 hour at room temperature, after which sections were mounted onto microscope slides with Vectamount with DAPI (Vector Laboratories, Burlingame, Calif.). Primary antibodies included Doublecortin (DCX) (SC-8066, Santa Cruz Biotechnology, Dallas, Tex., 1:200 goat), trimethylated H3K4 (9727L, Cell Signaling Technology, Beverly, Mass., 1:500 rabbit), and Kmt2d H-300 (SC-292359, Santa Cruz Biotechnology, Dallas, Tex., 1:500 rabbit). Non-specific binding was not observed when sections were sequentially exposed to serum (or IgG when appropriate) from the same species as the primary antibody for each experiment (i.e. rabbit for KMT2D and H3K4me3 and goat for doublecortin), followed by the secondary antibody used for KMT2D and H3K4me3 (anti-rabbit) or doublecortin (anti-goat, FIG. 27).
GCL and doublecortin area: The area of both the GCL and DCX+ cells was measured using the NS elements 2.0 software (Nikon, Tokyo, JPN). Normalized DCX area was calculated by measuring the DCX+ area of the GCL and setting the baseline (Kmt2d^+/+) fraction to 1. A Student t-test with significance value set at P<0.05 was used for comparison of DCX+ area referenced to GCL area between genotypes and treatment arms.

H3K4me3 in the GCL = assay: Immunofluorescence of H3K4me3 in dentate gyrus GCL (AR-42 treated mice); assay type: in vivo, mouse
Description: (§1) Animals: Kmt2d^+/βGeo mice, also named Mll2Gt^(RRt024)Byg, were acquired from Bay Genomics (University of California). All experimental mice were on a mixed C57BL/6J and 129/SvEv background. Expected Mendelian ratios were observed when heterozygous animals were bred to wild-type. In heterozygous crosses, however, there was uniform embryonic lethality of homozygotes by ED12, the earliest developmental stage assayed. For treatment with AR-42 mice were orally gavaged daily with drug (Selleck Chemicals, Houston, Tex.) solubilized in vehicle (0.5% methylcellulose, 0.1% Tween-80, water) or with vehicle alone. Drug delivery information was kindly provided by Drs. […] For quantification of DCX positive cells, doses of 0, 5, 10 and 25 mg/kg/day were used. […] Maxillary protrusion was evaluated by ten investigators blinded to genotype and they were asked to rate maxillary protrusion on radiographs as either large (2) or small (1). […]
Confocal microscopy: Z-stack images of slides were taken at either 10× using Zeiss Axiovert 200 with 510-Meta confocal module (Carl Zeiss, Jena, GER) or 25× using Zeiss AxioExaminer with 710NLO-Meta multiphoton (Carl Zeiss, Jena, GER). From 10× pictures, the GCL was highlighted and fluorescent intensities for both DAPI and H3K4me3 were measured at the midpoint of the entire z-stack (Zen software, Carl Zeiss, Jena, GER) with the value for Kmt2d^+/+ animals set equal to one. […]

[2] = tested on: Kmt2d^+/βGeo mice (mouse model of Kabuki syndrome); assay: Morris water maze (Example 1); assay type: in vivo; details: 10 mg/kg/day
Description: as §1
Morris water maze: Mice were placed in a 1.1 meter diameter tank filled with room temperature water dyed with non-toxic white paint. […] Latency to reach the platform was measured during each trial. […] Average number of crossings of the platform's previous location was recorded. […] For all training and probe testing, data was recorded both manually and electronically with ANY-maze software (San Diego Instruments, San Diego, Calif.) when applicable. […]

## CC(C)[C@H](C(=O)Nc1ccc(C(=O)NO)cc1)c1ccccc1 [AR-42, (S)—N-hydroxy-4-(3-methyl-2-phenylbutanamido)benzamide]
[1]; 10 mg/kg/day, older mice (5-6 months), Kmt2d^+/βGeo
  DCX expression in the GCL: improved
[1]; 25 mg/kg/day, Kmt2d^+/+ animals
  DCX expression in the GCL: reduced DCX expression
[1]; 25 mg/kg/day, Kmt2d^+/βGeo mice
  DCX expression in the GCL: did not improve DCX expression
[1]; 25 mg/kg/day, young (1-2 month-old) and old (5-6 month-old), both genotypes
  DCX expression in the GCL: decreased DCX expression
[1]; 1-2 month old Kmt2d^+/βGeo mice, doses 0, 5, 10 mg/kg/day
  neurogenesis (normalized DCX expression): dose-dependent increase in neurogenesis
[1]; 5 and 10 mg/kg/day, Kmt2d^+/+ or Kmt2d^+/βGeo, both age groups
  DCX expression in the GCL: preservation or restoration of DCX expression
H3K4me3 in the GCL; 25 mg/kg/day, oral gavage, two weeks
  H3K4me3 in the GCL: increased H3K4 trimethylation; also recorded: increased H3K4me3
H3K4me3 in the GCL; 5 and 10 mg/kg/day, both genotypes
  H3K4me3 in the GCL: dose-dependent increase in H3K4me3
[2]
  frequency of platform crossing during probe trial: improved performance for both genotypes; also recorded: normalized
[2]; Kmt2d^+/βGeo animals
  escape latency during training, with versus without drug: No significant difference is observed
